This is an account of results in patent US8476272B2, “Pharmaceutical composition for treatment of type 2 diabetes” (Jiangsu Hengrui Medicine Co., Ltd., priority 2010, dated 2013).

Assay [1] concerns genetic fatty Wistar rats with diabetes. As to the kind of experiment: Oral glucose loading test in genetic fatty Wistar rats with diabetes after 7 days of administration. The format is in vivo. To be noted: phosphates 30 mg/kg/day p.o., metformin 100 mg/kg/day, mean ± SD, n=5. The protocol: 13-14 week-old male Wistar rats were divided into 5 groups, 5 each group. […] Oral glucosieloading test was conducted immediately after fasting overnight (2 g glucose/kg/5 ml, p.o.). Blood was collected from caudal vein before or 120 minutes and 240 minutes after the test, and plasma glucose was analyzed with enzyme method (Encore Chemical System; Baker).

For assay [2] the test system is unchanged. As to the kind of experiment: 14-day administration to genetic fatty Wistar rats with diabetes: plasma glucose and hemoglobin. The following applies: 14 days, compound A or MK-0431 10 mg/kg/day p.o., metformin 100 mg/kg/day, mean ± SD, n=5-6; for hemoglobin: hemoglobin Al. Type of assay: in vivo. How it is done:
14-19 week-old male Wistar rats were divided into 5 groups, 5-6 each group. […] Blood was collected from caudal vein. The plasma glucose and hemoglobin Al were determined respectively with a commercial kit (NC-ROPET, Nippon Chemiphar CO.) by enzyme method.

Setting [3] is: 0 min (before glucose load 2 g/kg p.o.).
Setting [4] is: 120 min after glucose load 2 g/kg p.o.
[5] abbreviates: 240 min after glucose load 2 g/kg p.o.

On to `COC(=O)c1nc(C(F)(F)F)n2c1CN(C(=O)C[C@H](N)Cc1cc(F)c(F)cc1F)CC2` [phosphate of compound A], for which the plasma glucose came to 103 ± 11 mg/dL in assay [1] (setting [3]), 137 ± 17 mg/dL in assay [1] (setting [4]) and 102 ± 9 mg/dL in assay [1] (setting [5]).
For `CN(C)C(=N)N=C(N)N` [metformin], the plasma glucose was determined as 327 ± 46 in assay [2], 119 ± 11 mg/dL in assay [1] (setting [3]), 221 ± 62 mg/dL in assay [1] (setting [4]) and 107 ± 21 mg/dL in assay [1] (setting [5]). The compound also registered a hemoglobin in assay [2] of 6.1 ± 0.6.
`COC(=O)c1nc(C(F)(F)F)n2c1CN(C(=O)C[C@H](N)Cc1cc(F)c(F)cc1F)CC2` [Compound A, (R)-7-[3-amino-4-(2,4,5-trifluoro-phenyl)-butyryl]-3-trifluoromethyl-5,6,7,8-tetrahydro-imidazo[1,5-a]pyrazine-1-carboxylic acid methyl ester]: in assay [2], the plasma glucose was determined as 214 ± 50 and the hemoglobin worked out at 5.3 ± 0.3.
